# Values quoted from earlier work in patent US11168091B2, “Quantification and preparation of pharmaceutical grade cantharidin” (priority 2015, dated 2021).
# Details: properly stored in a cool and dry place away from strong light and heat; crude preparation of Table 6
compound,measurement,value
"CC12C(=O)OC(=O)C1(C)C1CCC2O1 (stereo not shown) [crude cantharidin, 1,2-Dimethyl-3,6-epoxyperhydrophthalic anhydride]",shelf life,3 years
